Assay results as given in ChEMBL document CHEMBL1201862, “PubChem BioAssay data set” (2004).
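All cell lines were grown in 96-well plates and treated with compound for 48 hours. Abbreviation: GI50, concentration required for 50% inhibition of growth.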 The source made the active and inactive calls. Cut-off read from the data, not from the text of the source: active = GI50 up to about 1.1 µM and inactive = higher.

Assays:
Experiment in all cases: inhibition of tumour cell growth, NCI panel, 48 h
[1] = system: DLD-1
[2] = system: NCI-H23
[3] = system: SNB-75
[4] = system: SK-MEL-5
[5] = system: OVCAR-3
[6] = system: RXF 393
[7] = system: SW-620
[8] = system: UO-31
[9] = system: MDA-MB-231
[10] = system: 786-0
[11] = system: SF-295
[12] = system: Malme-3M
[13] = system: UACC-257
[14] = system: MDA-N
[15] = system: LOX IMVI
[16] = system: HOP-62
[17] = system: SK-MEL-28
[18] = system: MOLT-4
[19] = system: HT-29
[20] = system: A498

| Compound | GI50 [1] | GI50 [2] | GI50 [3] | GI50 [4] | GI50 [5] | GI50 [6] | GI50 [7] | GI50 [8] | GI50 [9] | GI50 [10] | GI50 [11] | GI50 [12] | GI50 [13] | GI50 [14] | GI50 [15] | GI50 [16] | GI50 [17] | GI50 [18] | GI50 [19] | GI50 [20] |
| --- | --- | --- | --- | --- | --- | --- | --- | --- | --- | --- | --- | --- | --- | --- | --- | --- | --- | --- | --- | --- |
| Cn1cnc([N+](=O)[O-])c1Sc1nc(N)nc2c1ncn2C1OC(CO)C(O)C1O (stereo not drawn) | 7.67 µM (inactive) | 4.16 µM (inactive) | 6.44 µM (inactive) | 6.22 µM (inactive) | 4.9 µM (inactive) | 3.78 µM (inactive) | 28.1 µM (inactive) | 5.12 µM (inactive) | 0.783 µM (active) | 3.14 µM (inactive) | 3.46 µM (inactive) | 17.8 µM (inactive) | 15.2 µM (inactive) | 2.73 µM (inactive) | 1.09 µM (active) | 1.44 µM (inactive) | 28 µM (inactive) | 5 µM (inactive) | 6.27 µM (inactive) |  |
| CC(O)CCC(=O)c1ccoc1 (stereo not drawn) | 7960 µM (inactive) | 8110 µM (inactive) | 3500 µM (inactive) | 4560 µM (inactive) | 3610 µM (inactive) | 4850 µM (inactive) | > 9750 µM (inactive) | 3390 µM (inactive) | > 7830 µM (inactive) | > 10000 µM (inactive) | 7130 µM (inactive) | 6820 µM (inactive) | 5130 µM (inactive) |  | 6030 µM (inactive) | 6930 µM (inactive) | 6930 µM (inactive) | 4080 µM (inactive) | 8450 µM (inactive) | 3820 µM (inactive) |
